One experiment deals with Ba/F3 V617F cells (Homo sapiens, UniProt O60674, V617F, cells depend on it). Description: Proliferation assay (Cell Titer-Glo, 72 h) utilizing Ba/F3 V617F cells. The class given is cell-based, mouse. To be noted: Ba/F3 V617F cells, proliferation, level of activity given as class symbol, read-out: IC50 (the source's name). Put shortly: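 Ba/F3 V617F cells in RPMI/10% FBS, 1×10^5 cells/mL, exposed in duplicate to 3-fold serial compound dilutions (top 5 mM DMSO stock, diluted 1:250, added as 2× solution in 5% FBS medium) for 72 h at 37 °C. Viability by Cell Titer-Glo luminescence; IC50 reported.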
Chain of Ba/F3 V617F cells (O60674 whole entry V617F): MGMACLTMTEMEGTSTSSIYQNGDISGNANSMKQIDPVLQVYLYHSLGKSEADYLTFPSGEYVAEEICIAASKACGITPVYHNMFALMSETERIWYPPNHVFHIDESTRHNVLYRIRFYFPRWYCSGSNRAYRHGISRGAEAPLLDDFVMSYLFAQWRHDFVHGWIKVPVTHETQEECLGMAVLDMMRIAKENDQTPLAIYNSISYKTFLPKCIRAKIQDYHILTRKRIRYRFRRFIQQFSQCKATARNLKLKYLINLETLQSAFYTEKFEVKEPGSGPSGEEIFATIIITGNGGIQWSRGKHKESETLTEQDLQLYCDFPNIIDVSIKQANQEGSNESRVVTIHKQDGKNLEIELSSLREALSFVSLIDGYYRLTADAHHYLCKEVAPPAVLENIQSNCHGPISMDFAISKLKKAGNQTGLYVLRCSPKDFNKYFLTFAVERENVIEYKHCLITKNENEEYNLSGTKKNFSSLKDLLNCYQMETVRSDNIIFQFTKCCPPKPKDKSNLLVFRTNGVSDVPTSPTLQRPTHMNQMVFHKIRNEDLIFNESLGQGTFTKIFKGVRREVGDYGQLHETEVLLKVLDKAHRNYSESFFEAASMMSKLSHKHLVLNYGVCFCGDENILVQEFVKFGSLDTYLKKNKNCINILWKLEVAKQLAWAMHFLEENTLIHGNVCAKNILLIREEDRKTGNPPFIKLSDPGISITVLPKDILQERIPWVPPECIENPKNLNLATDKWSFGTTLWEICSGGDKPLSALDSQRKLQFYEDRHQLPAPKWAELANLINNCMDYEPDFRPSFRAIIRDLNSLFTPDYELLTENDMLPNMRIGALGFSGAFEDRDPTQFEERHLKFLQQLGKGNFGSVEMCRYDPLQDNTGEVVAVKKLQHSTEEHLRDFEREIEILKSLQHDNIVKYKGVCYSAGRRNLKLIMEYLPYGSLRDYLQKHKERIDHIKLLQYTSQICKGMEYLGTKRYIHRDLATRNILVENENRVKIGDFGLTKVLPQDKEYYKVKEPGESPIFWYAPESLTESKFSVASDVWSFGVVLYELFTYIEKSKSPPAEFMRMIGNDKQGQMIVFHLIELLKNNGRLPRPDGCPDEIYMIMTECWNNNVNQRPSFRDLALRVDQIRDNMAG
A general note: In ATP-based viability assays light output follows the ATP content of the culture.
For `CC1(C)Oc2cc(-c3ccnc(Nc4ccc(C5CC6CC5N(S(C)(=O)=O)C6)cc4)n3)cnc2NC1=O` (centres unmarked) [compound 228, 4-(2,2-dimethyl-3-oxo-3,4-dihydro-2H-pyrido[3,2-b][1,4]oxazin-7-yl)-N-(4-(2-methylsulfonyl-2-azabicyclo[2.2.1]heptan-6-yl)phenyl)pyrimidin-2-amine], the GI50 was below 1000 nM.

For the molecule `Cc1cc(Nc2nccc(-c3ccc4c(c3)SCC(=O)N4)n2)ccc1N1C[C@@H]2C[C@H]1CN2C` [compound 274, 4-(3-oxo-3,4-dihydro-2H-benzo[b][1,4]thiazin-7-yl)-N-(3-methyl-4-((1S,4S)-5-methyl-2,5-diazabicyclo[2.2.1]heptan-2-yl)phenyl)pyrimidin-2-amine], the GI50 was below 1000 nM.

Consider `Cc1cc(Nc2nccc(-c3cnc4c(c3)OC(C)(C)C(=O)N4)n2)ccc1N1CC2(C)CN(C)CC(C)(C1)C2` [compound 207, 4-(2,2-dimethyl-3-oxo-3,4-dihydro-2H-pyrido[3,2-b][1,4]oxazin-7-yl)-N-(3-methyl-4-(1,5,7-trimethyl-3,7-diazabicyclo[3.3.1]nonan-3-yl)phenyl)pyrimidin-2-amine], for which the GI50 was below 1000 nM.

Regarding `Cc1cc(Nc2nccc(-c3ccc4c(c3)OC(C)(C)C(=O)N4)n2)ccc1N1C[C@@H]2C[C@H]1CN2S(C)(=O)=O` [compound 241, 4-(2,2-dimethyl-3-oxo-3,4-dihydro-2H-benzo[b][1,4]oxazin-7-yl)-N-(3-methyl-4-((1S,4S)-5-methylsulfonyl-2,5-diazabicyclo[2.2.1]heptan-2-yl)phenyl)pyrimidin-2-amine], the GI50 is below 1000 nM.

Turning to `Cc1cc(Nc2nccc(-c3ccc(N4CCOCC4)nc3)n2)ccc1N1C[C@@H]2CC[C@H]1C2` [compound 222, 4-(6-(morpholin-4-yl)pyridin-3-yl)-N-(3-methyl-4-((1S,4R)-2-azabicyclo[2.2.1]heptan-2-yl)phenyl)pyrimidin-2-amine], the GI50 is below 1000 nM.

Consider `Cc1cc(Nc2nccc(-c3cnc4c(c3)OC(C)(C)C(=O)N4)n2)ccc1N1C[C@@H]2CC[C@H]1C2` [compound 223, 4-(2,2-dimethyl-3-oxo-3,4-dihydro-2H-pyrido[3,2-b][1,4]oxazin-7-yl)-N-(3-methyl-4-((1S,4R)-2-azabicyclo[2.2.1]heptan-2-yl)phenyl)pyrimidin-2-amine], for which the GI50 was below 1000 nM.

Take `CC(C)N1C[C@@H]2C[C@H]1CN2c1ccc(Nc2nccc(-c3ccc(N4CCOCC4)nc3)n2)cc1Cl` [compound 263, 4-(6-(morpholin-4-yl)pyridin-3-yl)-N-(3-chloro-4-((1S,4S)-5-(1-methylethyl)-2,5-diazabicyclo[2.2.1]heptan-2-yl)phenyl)pyrimidin-2-amine]: the GI50 is below 1000 nM.

In the case of `Cc1cc(Nc2nccc(-c3ccc(N4CCOCC4)nc3)n2)ccc1N1C[C@@H]2C[C@H]1CN2CC(C)C` [compound 205, 4-(6-(morpholin-4-yl)pyridin-3-yl)-N-(3-methyl-4-((1S,4S)-5-isobutyl-2,5-diazabicyclo[2.2.1]heptan-2-yl)phenyl)pyrimidin-2-amine], the GI50 was below 1000 nM.

For the molecule `CCN1C[C@@H]2C[C@H]1CN2c1ccc(Nc2nccc(-c3ccc4c(ccn4-c4ccncc4)c3)n2)cc1C` [compound 234, 4-(1-(pyridin-4-yl)-1H-indol-5-yl)-N-(3-methyl-4-((1S,4S)-5-ethyl-2,5-diazabicyclo[2.2.1]heptan-2-yl)phenyl)pyrimidin-2-amine], the GI50 was below 1000 nM.

As to `CN1C[C@@H]2C[C@H]1CN2c1ccc(Nc2nccc(-c3ccc4c(c3)CCCC(=O)N4)n2)cc1C#N` [compound 272, 4-(2-oxo-2,3,4,5-tetrahydro-1H-benzo[b]azepin-7-yl)-N-(3-cyano-4-((1S,4S)-5-methyl-2,5-diazabicyclo[2.2.1]heptan-2-yl)phenyl)pyrimidin-2-amine], the GI50 is below 1000 nM.

On to `COCCN(C)c1ccc(-c2ccnc(Nc3ccc(N4CC5(C)CN(C)CC(C)(C4)C5)c(C)c3)n2)cn1` [compound 221, 4-(6-(2-methoxyethyl)(methyl)aminopyridin-3-yl)-N-(3-methyl-4-(1,5,7-trimethyl-3,7-diazabicyclo[3.3.1]nonan-3-yl)phenyl)pyrimidin-2-amine], for which the GI50 is below 1000 nM.

For `Cc1cc(Nc2nccc(-c3ccc(N4CCOC(CN(C)C)C4)nc3)n2)ccc1N1C[C@@H]2C[C@H]1CN2C` (stereo partly drawn) [compound 189, 4-(6-(2-(dimethylamino)methylmorpholin-4-yl)pyridin-3-yl)-N-(3-methyl-4-((1S,4S)-5-methyl-2,5-diazabicyclo[2.2.1]heptan-2-yl)phenyl)pyrimidin-2-amine], the GI50 is below 1000 nM.

The experiment is the same for the next values; noted with them: Ba/F3 V617F cells, proliferation, level of activity to inhibit JAK2, read-out: IC50 (the source's name).
`Cc1cc(Nc2nccc(-c3cnc4c(c3)OC(C)(C)C(=O)N4C)n2)ccc1N1C[C@@H]2C[C@H]1CN2C` [compound 125, 4-(2,2,4-trimethyl-3-oxo-3,4-dihydro-2H-pyrido[3,2-b][1,4]oxazin-7-yl)-N-(3-methyl-4-((1S,4S)-5-methyl-2,5-diazabicyclo[2.2.1]heptan-2-yl)phenyl)pyrimidin-2-amine]: the GI50 is below 1000 nM.

With `CCNC(=O)N1C[C@@H]2C[C@H]1CN2c1ccc(Nc2nccc(-c3ccc(N4CCOCC4)nc3)n2)cc1C` [compound 26, 4-(6-(morpholin-4-yl)pyridin-3-yl)-N-(3-methyl-4-((1S,4S)-5-((ethylamino)carbonyl)-2,5-diazabicyclo[2.2.1]heptan-2-yl)phenyl)pyrimidin-2-amine], the GI50 was below 1000 nM.

With `Cc1cc(Nc2ncc(C)c(-c3ccc(N4CCOCC4)nc3)n2)ccc1N1C[C@@H]2C[C@H]1CN2C` [compound 67, 5-methyl-4-(6-(morpholin-4-yl)pyridin-3-yl)-N-(3-methyl-4-((1S,4S)-5-methyl-2,5-diazabicyclo[2.2.1]heptan-2-yl)phenyl)pyrimidin-2-amine], the GI50 is below 1000 nM.

As to `CN1C(=O)C(C)(C)Oc2cc(-c3ccnc(Nc4ccc(N5C[C@@H]6C[C@H]5CN6C)c(F)c4)n3)cnc21` [compound 126, 4-(2,2,4-trimethyl-3-oxo-3,4-dihydro-2H-pyrido[3,2-b][1,4]oxazin-7-yl)-N-(3-fluoro-4-((1S,4S)-5-methyl-2,5-diazabicyclo[2.2.1]heptan-2-yl)phenyl)pyrimidin-2-amine], the GI50 is below 1000 nM.

For `Cc1cc(Nc2nccc(-c3ccc(NS(C)(=O)=O)cc3)n2)ccc1N1C[C@@H]2C[C@H]1CN2C` [compound 136, 4-(4-(methylsulfonylamino)phenyl)-N-(3-methyl-4-((1S,4S)-5-methyl-2,5-diazabicyclo[2.2.1]heptan-2-yl)phenyl)pyrimidin-2-amine], the GI50 was below 1000 nM.

Take `Cc1cc(Nc2nccc(-c3ccc(NC4CCCCC4)nc3)n2)ccc1N1C[C@@H]2C[C@H]1CN2C` [compound 78, 4-(6-(cyclohexylamino)pyridin-3-yl)-N-(3-methyl-4-((1S,4S)-5-methyl-2,5-diazabicyclo[2.2.1]heptan-2-yl)phenyl)pyrimidin-2-amine]: the GI50 is below 1000 nM.

For `CN1C[C@@H]2C[C@H]1CN2c1ccc(Nc2nccc(-c3cnc(N4CCOCC4)cn3)n2)cc1F` [compound 179, 4-(5-(morpholin-4-yl)pyrazin-2-yl)-N-(3-fluoro-4-((1S,4S)-5-methyl-2,5-diazabicyclo[2.2.1]heptan-2-yl)phenyl)pyrimidin-2-amine], the GI50 lay in the range of 1000 to 10000 nM.

Turning to `CN1CC2(C)CN(c3ccc(Nc4nccc(-c5ccc(N6CCOCC6)nc5)n4)cc3F)CC(C)(C1)C2` [compound 85, 4-(6-(morpholin-4-yl)pyridin-3-yl)-N-(3-fluoro-4-(1,5,7-trimethyl-3,7-diazabicyclo[3.3.1]nonan-3-yl)phenyl)pyrimidin-2-amine], the GI50 is below 1000 nM.

Regarding `Cc1cc(Nc2nccc(-c3cnc(NC(=O)C4CC4)nc3)n2)ccc1N1C[C@@H]2C[C@H]1CN2C` [compound 44, 4-(2-((cyclopropyl)carbonylamino)-pyrimidin-5-yl)-N-(3-methyl-4-((1S,4S)-5-methyl-2,5-diazabicyclo[2.2.1]heptan-2-yl)phenyl)pyrimidin-2-amine], the GI50 was below 1000 nM.

With `Cc1cc(Nc2nccc(-c3cnc4[nH]ccc4c3)n2)ccc1N1C[C@@H]2C[C@H]1CO2` [compound 33, 4-(1H-pyrrolo[2,3-b]pyridin-5-yl)-N-(3-methyl-4-((1S,4S)-5-oxa-2-azabicyclo[2.2.1]heptan-2-yl)phenyl)pyrimidin-2-amine], the GI50 was below 1000 nM.

Take `CN1C[C@@H]2C[C@H]1CN2c1ccc(Nc2nccc(-c3ccc(NCCN4CCOCC4)nc3)n2)cc1F` [compound 70, 4-(6-(2-(morpholin-4-yl)ethyl)aminopyridin-3-yl)-N-(3-fluoro-4-((1S,4S)-5-methyl-2,5-diazabicyclo[2.2.1]heptan-2-yl)phenyl)pyrimidin-2-amine]: the GI50 is below 1000 nM.

For `CN1C[C@@H]2C[C@H]1CN2c1ccc(Nc2nccc(-c3ccc(NC4CCCCC4)nc3)n2)cc1F` [compound 79, 4-(6-(cyclohexylamino)pyridin-3-yl)-N-(3-fluoro-4-((1S,4S)-5-methyl-2,5-diazabicyclo[2.2.1]heptan-2-yl)phenyl)pyrimidin-2-amine], the GI50 was below 1000 nM.

Staying with this experiment, now noted: inhibition of JAK2 activity, proliferation of Ba/F3 V617F cells, read-out: IC50 (the source's name).
In the case of `Cc1cc(Nc2nccc(-c3cnc4c(c3)OC(C)(C)C(=O)N4)n2)cnc1N1C[C@@H]2C[C@H]1CN2C` [compound 138, 4-(2,2-dimethyl-3-oxo-3,4-dihydro-2H-pyrido[3,2-b][1,4]oxazin-7-yl)-N-(5-methyl-6-((1S,4S)-5-methyl-2,5-diazabicyclo[2.2.1]heptan-2-yl)pyridin-3-yl)pyrimidin-2-amine], the GI50 was below 1000 nM.

As to `Cc1cc(Nc2nccc(-c3ccc(NC(=O)NC4CC4)cc3)n2)cnc1N1C[C@@H]2C[C@H]1CN2C` [compound 140, 4-(4-(3-cyclopropylureido)phenyl)-N-(5-methyl-6-((1S,4S)-5-methyl-2,5-diazabicyclo[2.2.1]heptan-2-yl)pyridin-3-yl)pyrimidin-2-amine], the GI50 lay in the range of 1000 to 10000 nM.

For the origin of these results see patent publication US9624229B2, “Pyrimidine-2-amine compounds and their use as inhibitors of JAK kinases” (Rigel Pharmaceuticals, Inc., priority 2008, dated 2017).
